This note sets out measurements from patent US10287301B2 (Achillion Pharmaceuticals, Inc., priority 2015, dated 2019).

Bounds are passed on as bounds.

In the test the target is Human Factor D (Homo sapiens (Human), UniProt P00746). Kind of test: Human Factor D Assay. The following applies: Human Factor D, Table 3; read-out: IC50. It counts as biochemical. Put shortly: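 Factor D (from human serum) 80 nM final + cpd, 5 min RT, 50 mM Tris/1M NaCl pH 7.5; add Z-L-Lys-SBzl 100 μM and DTNB 100 μM final. IC50 by nonlinear fit of rates vs [cpd].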
Chain of Human Factor D (P00746 26-253): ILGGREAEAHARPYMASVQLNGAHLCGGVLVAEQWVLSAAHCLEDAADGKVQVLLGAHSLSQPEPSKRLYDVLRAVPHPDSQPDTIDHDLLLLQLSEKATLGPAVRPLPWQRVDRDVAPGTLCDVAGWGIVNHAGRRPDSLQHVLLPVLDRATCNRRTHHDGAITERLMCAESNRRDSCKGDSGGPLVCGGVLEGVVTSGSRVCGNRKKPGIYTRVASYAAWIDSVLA
As a reminder, the IC50 is the concentration that gives 50% inhibition. Consider `CC(=O)c1nn(CC(=O)N2[C@@H]3C[C@@H]3C[C@H]2C(=O)Nc2cncc(Br)n2)c2ccc(-c3ccc4nc(C)nn4c3)cc12` [Compound 659, (1R,3S,5R)-2-(2-(3-Acetyl-5-(2-methyl-[1,2,4]triazolo[1,5-a]pyridin-6-yl)-1H-indazol-1-yl)acetyl)-N-(6-bromopyrazin-2-yl)-2-azabicyclo[3.1.0]hexane-3-carboxamide], for which the half-inhibitory concentration (IC50) was below 1000 nM.

As to `CC(=O)c1nn(CC(=O)N2[C@@H]3C[C@@H]3C[C@H]2C(=O)Nc2cccc(Br)n2)c2ccc(-c3ccc4nc(C)nn4c3)cc12` [Compound 660, (1R,3S,5R)-2-(2-(3-Acetyl-5-(2-methyl-[1,2,4]triazolo[1,5-a]pyridin-6-yl)-1H-indazol-1-yl)acetyl)-N-(6-bromopyridin-2-yl)-2-azabicyclo[3.1.0]hexane-3-carboxamide], the IC50 is below 1000 nM.

`CC(=O)c1nn(CC(=O)N2C[C@H](F)C[C@H]2C(=O)Nc2cnc(C)c(Br)n2)c2ccc(-c3cnc4cc(C)nn4c3)cc12` [Compound 662, (2S,4R)-1-(2-(3-Acetyl-5-(2-methylpyrazolo[1,5-a]pyrimidin-6-yl)-1H-indazol-1-yl)acetyl)-N-(6-bromo-5-methylpyrazin-2-yl)-4-fluoropyrrolidine-2-carboxamide]: the 50% inhibitory concentration (IC50) was below 1000 nM.

Take `CC(=O)c1nn(CC(=O)N2C[C@H](F)C[C@H]2C(=O)Nc2cnc(C)c(Br)n2)c2ccc(-c3ccc4nc(C)nn4c3)cc12` [Compound 663, (2S,4R)-1-(2-(3-Acetyl-5-(2-methyl-[1,2,4]triazolo[1,5-a]pyridin-6-yl)-1H-indazol-1-yl)acetyl)-N-(6-bromo-5-methylpyrazin-2-yl)-4-fluoropyrrolidine-2-carboxamide]: the half-maximal inhibitory concentration (IC50) is below 1000 nM.

With `CC(=O)c1nn(CC(=O)N2[C@@H]3C[C@@H]3C[C@H]2C(=O)Nc2cncc(Br)n2)c2ccc(-c3cnc4ccnn4c3)cc12` [Compound 664, (1R,3S,5R)-2-(2-(3-Acetyl-5-(pyrazolo[1,5-a]pyrimidin-6-yl)-1H-indazol-1-yl)acetyl)-N-(6-bromopyrazin-2-yl)-2-azabicyclo[3.1.0]hexane-3-carboxamide], the 50% inhibitory concentration (IC50) is below 1000 nM.

As to `CC(=O)c1nn(CC(=O)N2C[C@H](F)C[C@H]2C(=O)Nc2cnc(C)c(Br)n2)c2ccc(-c3cnc4ccnn4c3)cc12` [Compound 665, (2S,4R)-1-(2-(3-Acetyl-5-(pyrazolo[1,5-a]pyrimidin-6-yl)-1H-indazol-1-yl)acetyl)-N-(6-bromo-5-methylpyrazin-2-yl)-4-fluoropyrrolidine-2-carboxamide], the concentration for half-maximal inhibition (IC50) was below 1000 nM.

With `CC(=O)c1nn(CC(=O)N2[C@@H]3C[C@@H]3C[C@H]2C(=O)Nc2cnc(C)c(Br)n2)c2ccc(-c3cnc4cc(C)nn4c3)cc12` [Compound 666, (1R,3S,5R)-2-(2-(3-Acetyl-5-(2-methylpyrazolo[1,5-a]pyrimidin-6-yl)-1H-indazol-1-yl)acetyl)-N-(6-bromo-5-methylpyrazin-2-yl)-2-azabicyclo[3.1.0]hexane-3-carboxamide], the half-maximal inhibitory concentration (IC50) is below 1000 nM.

Turning to `CC(=O)c1nn(CC(=O)N2[C@@H]3C[C@@H]3C[C@H]2C(=O)Nc2cnc(C)c(Br)n2)c2ccc(-c3cnc4ccnn4c3)cc12` [Compound 667, (1R,3S,5R)-2-(2-(3-Acetyl-5-(pyrazolo[1,5-a]pyrimidin-6-yl)-1H-indazol-1-yl)acetyl)-N-(6-bromo-5-methylpyrazin-2-yl)-2-azabicyclo[3.1.0]hexane-3-carboxamide], the IC50 was below 1000 nM.

Turning to `CC(=O)c1nn(CC(=O)N2C[C@H](F)C[C@H]2C(=O)Nc2cccc(OC(F)(F)F)n2)c2ccc(-c3cnc4ccnn4c3)cc12` [Compound 668, (2S,4R)-1-(2-(3-Acetyl-5-(pyrazolo[1,5-a]pyrimidin-6-yl)-1H-indazol-1-yl)acetyl)-4-fluoro-N-(6-(trifluoromethoxy)pyridin-2-yl)pyrrolidine-2-carboxamide], the concentration for half-maximal inhibition (IC50) was below 1000 nM.

For `CC(=O)c1nn(CC(=O)N2[C@@H]3C[C@@H]3C[C@H]2C(=O)Nc2cncc(Br)n2)c2ccc(-c3cnc4cc(C5CC5)nn4c3)cc12` [Compound 669, (1R,3S,5R)-2-(2-(3-Acetyl-5-(2-cyclopropylpyrazolo[1,5-a]pyrimidin-6-yl)-1H-indazol-1-yl)acetyl)-N-(6-bromopyrazin-2-yl)-2-azabicyclo[3.1.0]hexane-3-carboxamide], the IC50 was below 1000 nM.

`CC(=O)c1nn(CC(=O)N2[C@@H]3C[C@@H]3C[C@H]2C(=O)Nc2cccc(OC(F)(F)F)n2)c2ccc(-c3cnc4cc(C)nn4c3)cc12` [Compound 670, (1R,3S,5R)-2-(2-(3-Acetyl-5-(2-methylpyrazolo[1,5-a]pyrimidin-6-yl)-1H-indazol-1-yl)acetyl)-N-(6-(trifluoromethoxy)pyridin-2-yl)-2-azabicyclo[3.1.0]hexane-3-carboxamide]: the half-inhibitory concentration (IC50) is below 1000 nM.

In the case of `CC(=O)c1nn(CC(=O)N2[C@@H]3C[C@@H]3C[C@H]2C(=O)Nc2cccc(OC(F)(F)F)n2)c2ccc(-c3cnc4ccnn4c3)cc12` [Compound 671, (1R,3S,5R)-2-(2-(3-Acetyl-5-(pyrazolo[1,5-a]pyrimidin-6-yl)-1H-indazol-1-yl)acetyl)-N-(6-(trifluoromethoxy)pyridin-2-yl)-2-azabicyclo[3.1.0]hexane-3-carboxamide], the IC50 was below 1000 nM.

On to `CC(=O)c1nn(CC(=O)N2C[C@H](F)C[C@H]2C(=O)Nc2cccc(OC(F)(F)F)n2)c2ccc(-c3cnc4cc(C5CC5)nn4c3)cc12` [Compound 672, (2S,4R)-1-(2-(3-Acetyl-5-(2-cyclopropylpyrazolo[1,5-a]pyrimidin-6-yl)-1H-indazol-1-yl)acetyl)-4-fluoro-N-(6-(trifluoromethoxy)pyridin-2-yl)pyrrolidine-2-carboxamide], for which the IC50 was below 1000 nM.

Regarding `CC(=O)c1nn(CC(=O)N2[C@@H]3C[C@@H]3C[C@H]2C(=O)Nc2cccc(Br)n2)c2ccc(-c3cnc4cc(C5CC5)nn4c3)cc12` [Compound 673, (1R,3S,5R)-2-(2-(3-Acetyl-5-(2-cyclopropylpyrazolo[1,5-a]pyrimidin-6-yl)-1H-indazol-1-yl)acetyl)-N-(6-bromopyridin-2-yl)-2-azabicyclo[3.1.0]hexane-3-carboxamide], the 50% inhibitory concentration (IC50) is below 1000 nM.

In the case of `CC(=O)c1nn(CC(=O)N2C[C@H](F)C[C@H]2C(=O)Nc2cccc(Br)n2)c2ccc(-c3cnc4cc(C5CC5)nn4c3)cc12` [Compound 674, (2S,4R)-1-(2-(3-Acetyl-5-(2-cyclopropylpyrazolo[1,5-a]pyrimidin-6-yl)-1H-indazol-1-yl)acetyl)-N-(6-bromopyridin-2-yl)-4-fluoropyrrolidine-2-carboxamide], the half-inhibitory concentration (IC50) was below 1000 nM.

Take `CC(=O)c1nn(CC(=O)N2C[C@H](F)C[C@H]2C(=O)Nc2cnc(C)c(Br)n2)c2ccc(-c3cnc4cc(C5CC5)nn4c3)cc12` [Compound 675, (2S,4R)-1-(2-(3-Acetyl-5-(2-cyclopropylpyrazolo[1,5-a]pyrimidin-6-yl)-1H-indazol-1-yl)acetyl)-N-(6-bromo-5-methylpyrazin-2-yl)-4-fluoropyrrolidine-2-carboxamide]: the concentration for half-maximal inhibition (IC50) is below 1000 nM.

As for `CC(=O)c1nn(CC(=O)N2C[C@H](F)C[C@H]2C(=O)Nc2cc(Cl)cc(Br)n2)c2ccc(-c3cnc4cc(C)nn4c3)cc12` [Compound 676, (2S,4R)-1-(2-(3-acetyl-5-(2-methylpyrazolo[1,5-a]pyrimidin-6-yl)-1H-indazol-1-yl)acetyl)-N-(6-bromo-4-chloropyridin-2-yl)-4-fluoropyrrolidine-2-carboxamide], the 50% inhibitory concentration (IC50) was below 1000 nM.

Consider `CC(=O)c1nn(CC(=O)N2C[C@H](F)C[C@H]2C(=O)Nc2ccn(CC(F)(F)F)n2)c2ccc(-c3cnc4cc(C)nn4c3)cc12` [Compound 678, (2S,4R)-1-(2-(3-acetyl-5-(2-methylpyrazolo[1,5-a]pyrimidin-6-yl)-1H-indazol-1-yl)acetyl)-4-fluoro-N-(1-(2,2,2-trifluoroethyl)-1H-pyrazol-3-yl)pyrrolidine-2-carboxamide], for which the half-inhibitory concentration (IC50) was below 1000 nM.

Take `COC(=O)Cc1cccc(NC(=O)[C@@H]2C[C@@H](F)CN2C(=O)Cn2nc(C(C)=O)c3cc(-c4cnc5cc(C)nn5c4)ccc32)n1` [Compound 679, methyl 2-(6-((2S,4R)-1-(2-(3-acetyl-5-(2-methylpyrazolo[1,5-a]pyrimidin-6-yl)-1H-indazol-1-yl)acetyl)-4-fluoropyrrolidine-2-carboxamido)pyridin-2-yl)acetate]: the IC50 is below 1000 nM.

As for `CC(=O)c1nn(CC(=O)N2C[C@H](F)C[C@H]2C(=O)Nc2cccc(C(C)C)n2)c2ccc(-c3cnc4cc(C)nn4c3)cc12` [Compound 680, (2S,4R)-1-(2-(3-acetyl-5-(2-methylpyrazolo[1.5-a]pyrimidin-6-yl)-1H-indazol-1-yl)acetyl)-4-fluoro-N-(6-isopropylpyridin-2-yl)pyrrolidine-2-carboxamide], the IC50 was below 1000 nM.

Take `CCc1cc2ncc(-c3ccc4c(c3)c(C(C)=O)nn4CC(=O)N3C[C@H](F)C[C@H]3C(=O)Nc3cccc(Br)n3)cn2n1` [Compound 681, (2S,4R)-1-(2-(3-Acetyl-5-(2-ethylpyrazolo[1,5-a]pyrimidin-6-yl)-1H-indazol-1-yl)acetyl)-N-(6-bromopyridin-2-yl)-4-fluoropyrrolidine-2-carboxamide]: the half-inhibitory concentration (IC50) was below 1000 nM.

In the case of `CC(=O)c1nn(CC(=O)N2C[C@H](F)C[C@H]2C(=O)Nc2cccc(Br)n2)c2ccc(-c3cnc4cc(C(C)(C)C)nn4c3)cc12` [Compound 682, (2S,4R)-1-(2-(3-Acetyl-5-(2-(tert-butyl)pyrazolo[1,5-a]pyrimidin-6-yl)-1H-indazol-1-yl)acetyl)-N-(6-bromopyridin-2-yl)-4-fluoropyrrolidine-2-carboxamide], the IC50 was below 1000 nM.

In the case of `CC(=O)c1nn(CC(=O)N2C[C@H](F)C[C@H]2C(=O)Nc2cccc(Br)n2)c2ccc(-c3cnc4cc(F)nn4c3)cc12` [Compound 683, (2S,4R)-1-(2-(3-Acetyl-5-(2-fluoropyrazolo[1,5-a]pyrimidin-6-yl)-1H-indazol-1-yl)acetyl)-N-(6-bromopyridin-2-yl)-4-fluoropyrrolidine-2-carboxamide], the IC50 is below 1000 nM.
